# Reference: patent US8791132B2, “Compounds and methods for treatment of hypertension” (Medivation Technologies, Inc., priority 2011, dated 2014)
# Key:
# SH-SY5Y cells [1] = assay: Cell death (LDH release) in hydrogen peroxide-treated SH-SY5Y cells; format: cell-based; conditions: LDH release normalized to vehicle (=100); hydrogen peroxide 300 μM, 24 h; compounds at 10 nM
# Experimental: (§1) SH-SY5Y cells cultured in DMEM/F12 media supplemented with 10% FBS were seeded in 96-well microplates at 150,000 cells/cm^2. After 24 h, cells were depleted from FBS and kept in culture for 24 h before the experiment. Cells were then treated with 4-Br-A23187 (2 μM), hydrogen peroxide (300 μM) or the mitochondrial toxin rotenone (25 μM) in the presence of vehicle or Compound of the Invention for 24 h. Cell death was determined by measurements of LDH release according to the Cytotoxicity Detection KitPlus (Roche, Mannheim, Germany). Cell viability was determined by measuring the capacity of cells to metabolize MTS tetrazolium (MTS) according to the Cytotoxicity Detection KitPlus (Roche, Mannheim, Germany) and MTS reduction is assessed by the CellTiter 96® AQueous One Solution Cell Proliferation assay (Promega Corporation, Madison, Wis., USA). Compounds were screened at 10 nM, using DMSO as vehicle. Assay results for the experiments with hydrogen peroxide are presented as the LDH release (cell death) of untreated cells (control), hydrogen peroxide-treated cells (vehicle), and co-incubation of hydrogen peroxide with Compounds of the Invention treated cells normalized to the vehicle (FIG. 17A). This assay assesses the ability of the test compounds to protect against cell death that is mediated by mitochondrial dysfunction. In the assay, the calcium ionophore 4-Br-A23187 is used to challenge the cells, causing calcium levels to rise in mitochondria, which leads to depolarization and cell death. Test compounds are assessed for their ability to prevent cell death in response to challenge with 4-Br-A23187.
# SH-SY5Y cells [2] = assay: Cell viability (MTS reduction) in 4-Br-A23187-treated SH-SY5Y cells; format: cell-based; conditions: MTS reduction capacity; 4-Br-A23187 2 μM, 24 h; compounds at 10 nM
# Experimental: as §1, with “After” for “SH-SY5Y cells cultured in DMEM/F12 media supplemented with 10% FBS were seeded in 96-well microplates at 150,000 cells/cm^2. After”
# [3] = system: SH-SY5Y cells over-expressing α-syn; assay: Cell viability (MTS reduction) in SH-SY5Y cells over-expressing α-synuclein; format: cell-based; conditions: Homo sapiens, 336 h, α-syn over-expression (−dox), +dox control = 100, 14 days, read-out: Relative cell viability protection
# Experimental: Cell Culture. SH-SY5Y cells stably transfected with a doxycyline-inducible wild-type α-synuclein (α-syn) gene along with control SH-SY5Y cells over-expressing the β-galactosidase (β-gal) gene (a gift from L. Stefanis, Division of Basic Neurosciences, Biomedical Research Foundation of the Academy of Athens, Athens, Greece) are cultured as described by Vekrellis et al. (Vekrellis K, Xilouri M, Emmanouilidou E, Stefanis L. (2009). Inducible over-expression of α-syn in human neuronal cells leads to caspase-dependent non-apoptotic death. J Neurochem 109, 1348-1362). In accordance with this method, cells are cultured and maintained in RPMI 1640, 10% fetal bovine serum supplemented with 250 μg/mL G418 and 50 μg/mL Hygromycin B. Expression of α-syn is switched off in stock cultures with doxycycline (2 μg/mL). For experimental procedures, cells are plated at (4−8×10^4 cells/cm^2) and differentiated in absence of doxycycline and in the presence of 20 μM all-trans retinoic acid (RA) (Sigma, St Louis, Mo., USA).
# Viability Assay: Cells are cultured in 96-well plates. After 24 h, cells are treated with RA and Compounds of Invention at 0.1 and 10 nM in the absence of doxycyline. Culture medium with RA and drugs is fully replaced after 7 days. Cell viability is measured by the release of lactate dehydrogenase (LDH) from necrotic cells into the culture medium and by measuring the capacity of cells to metabolize MTS tetrazolium (MTS) after 14 days in culture. LDH leakage is assessed according to the Cytotoxicity Detection KitPlus (Roche, Mannheim, Germany) and MTS reduction is assessed by the CellTiter 96® AQueous One Solution Cell Proliferation assay (Promega Corporation, Madison, Wis., USA).
# Assay results for the experiments with α-syn over-expression are presented as the MTS reduction capacity (cell viability) of control cells (+dox), cells over-expressing α-syn (−dox), and cells over-expressing α-syn incubated with Compounds of the Invention at 0.1 nM (FIG. 18A) or 10 nM (FIG. 18B).
# [4] = target: T1, human recombinant adrenergic α2B receptor (Homo sapiens, UniProt P18089); assay: Radioligand binding, adrenergic α2B ([3H]Rauwolscine); conditions: compound at 0.1 μM; [3H]Rauwolscine; repeat assays, each datapoint shown; read-out: Percentage inhibition of ligand binding, Adrenergic α2B
# T1 construct: expressed in transfected cells; host or cells: CHO-K1
# T1 sequence (P18089 1-450): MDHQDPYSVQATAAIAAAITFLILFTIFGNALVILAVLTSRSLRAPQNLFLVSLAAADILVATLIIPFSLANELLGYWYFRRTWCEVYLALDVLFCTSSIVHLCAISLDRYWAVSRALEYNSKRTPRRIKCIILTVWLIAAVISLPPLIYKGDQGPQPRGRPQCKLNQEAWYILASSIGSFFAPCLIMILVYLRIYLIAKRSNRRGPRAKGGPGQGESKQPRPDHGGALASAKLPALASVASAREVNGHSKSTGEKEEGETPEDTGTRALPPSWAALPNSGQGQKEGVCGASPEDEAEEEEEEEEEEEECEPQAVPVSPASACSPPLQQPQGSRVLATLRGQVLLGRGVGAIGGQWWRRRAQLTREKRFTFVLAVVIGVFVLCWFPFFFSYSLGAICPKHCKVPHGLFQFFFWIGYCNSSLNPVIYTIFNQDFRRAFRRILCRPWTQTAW
# Summary of the method: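 Assay used CHO-K1-expressed human α2B receptor in Tris-HCl pH 7.4 buffer with MgCl2, EDTA and BSA; 60 min incubation at 25 °C.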
# [5] = target: T2, rat adrenergic α1B receptor (Rattus norvegicus, UniProt P15823); assay: Radioligand binding, adrenergic α1B ([3H]Prazosin); conditions: compound at 0.1 μM, [3H]Prazosin, repeat assays, each datapoint shown
# T2 construct: rat adrenergic α1B receptor obtained from Wistar Rat liver; from tissue; host or cells: Wistar rat liver
# T2 sequence (P15823 1-515): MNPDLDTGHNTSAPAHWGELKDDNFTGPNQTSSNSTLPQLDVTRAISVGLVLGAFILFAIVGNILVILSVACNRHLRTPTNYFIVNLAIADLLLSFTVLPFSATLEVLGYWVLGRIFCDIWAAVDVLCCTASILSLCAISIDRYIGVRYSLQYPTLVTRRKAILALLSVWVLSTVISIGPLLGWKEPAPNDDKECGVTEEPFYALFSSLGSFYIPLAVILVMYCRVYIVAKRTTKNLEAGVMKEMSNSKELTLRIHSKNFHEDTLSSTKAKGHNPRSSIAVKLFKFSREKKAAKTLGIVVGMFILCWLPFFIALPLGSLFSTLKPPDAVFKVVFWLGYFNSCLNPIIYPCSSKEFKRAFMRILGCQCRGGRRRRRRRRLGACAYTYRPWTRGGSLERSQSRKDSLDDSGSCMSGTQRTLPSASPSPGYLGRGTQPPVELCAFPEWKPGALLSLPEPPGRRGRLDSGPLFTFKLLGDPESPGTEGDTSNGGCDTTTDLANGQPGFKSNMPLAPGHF
# Summary of the method: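 Filter binding with Wistar rat liver α1B preparation: test compound plus 0.25 nM [3H]prazosin, 1 h at 25° C in modified Tris-HCl buffer pH 7.4.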
# [6] = target: T3, human recombinant adrenergic α1D receptor (Homo sapiens, UniProt P25100); assay: Radioligand binding, adrenergic α1D ([3H]Prazosin); conditions: compound at 0.1 μM; [3H]Prazosin; repeat assays, each datapoint shown; read-out: Percentage inhibition of ligand binding, Adrenergic α1D
# T3 construct: expressed in transfected cells; host or cells: HEK-293
# T3 sequence (P25100 1-572): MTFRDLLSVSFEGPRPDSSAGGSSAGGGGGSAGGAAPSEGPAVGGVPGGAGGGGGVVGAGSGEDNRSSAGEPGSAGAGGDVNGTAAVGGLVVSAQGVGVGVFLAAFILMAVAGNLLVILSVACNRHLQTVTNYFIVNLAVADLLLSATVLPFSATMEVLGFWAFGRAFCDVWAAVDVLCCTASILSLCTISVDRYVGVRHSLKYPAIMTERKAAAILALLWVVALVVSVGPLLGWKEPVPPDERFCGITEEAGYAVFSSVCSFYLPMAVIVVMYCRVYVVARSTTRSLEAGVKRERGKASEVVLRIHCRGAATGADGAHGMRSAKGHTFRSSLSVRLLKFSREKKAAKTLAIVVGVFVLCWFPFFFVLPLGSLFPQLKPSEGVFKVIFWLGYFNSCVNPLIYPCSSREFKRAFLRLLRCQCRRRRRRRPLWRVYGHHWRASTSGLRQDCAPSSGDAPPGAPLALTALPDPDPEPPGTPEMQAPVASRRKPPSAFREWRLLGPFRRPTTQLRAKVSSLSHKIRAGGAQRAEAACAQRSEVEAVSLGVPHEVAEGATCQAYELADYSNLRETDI
# Experimental: Compounds were incubated with 0.6 nM [3H]Prazosin for 60 min at 25° C. Non-specific binding was estimated in the presence of 10 μM phentolamine. Receptor proteins were filtered and washed, the filters were then counted to determine [3H]Prazosin specifically bound. […] Biochemical assay results are presented as the percent inhibition of specific binding in Table B1.
Structure (SMILES),"LDH release (cell death), relative to vehicle (SH-SY5Y cells [1])",Relative cell viability protection (SH-SY5Y cells [2]),viability at 0.0001 µM ([3]; compounds at 0.1 nM),viability at 0.01 µM ([3]; compounds at 10 nM),inhibition at 0.1 µM [4],"Percentage inhibition of ligand binding, Adrenergic α1B ([5]; 0.1 µM)","inhibition at 0.1 µM ([5]; read-out: Percentage inhibition of ligand binding, Adrenergic α1B)",inhibition at 0.1 µM [6]
"Cc1ccc2c(c1)c1c(n2CCc2ccc(C)nc2)CCN(C)C1 [Dimebon (DMB), dimebon, reference compound]",91.15,0.3538,70.5%,85.7%,–,–,–,–
CN1CCc2c(c3cc(Cl)ccc3n2CC(O)c2ccncc2)C1 (stereo not drawn) [compound 4],–,0.3463,–,–,101%,60%,51%,12%
